Read-outs that look alike come from different tables or passages of the source.
Assays:
[1] = test system: CX-1 (human colon carcinoma); assay: Clonogenic in vitro study, inhibition of cell colony formation, CX-1; type: cell-based; conditions: for S (selectivity value): comparative examples; for S (selectivity value) / Selectivity: CV-1 IC50 divided by CX-1 IC50; for IC50: Homo sapiens, Colon carcinoma cell, read-out: CX-1 (colon carcinoma cells IC50 value)
Experimental: This IC50 value is compared for both the CX-1 and CV-1. That is, the CV-1 value is divided by the value for CX-1. If the value is 10 μg/ml for CV-1, and […] for CX-1, then the dye is 10 times as effective in killing off the colon carcinoma cells, compared to the monkey epithelial cells. This is expressed as a selectivity "S" of 10. That is, in order to inhibit 50% of the normal cells, the drug requires ten times the concentration needed for inhibiting 50% of the cancer cells.

[2] = test system: CV-1 (normal monkey kidney epithelial cells); assay: Clonogenic in vitro study, inhibition of cell colony formation, CV-1; type: cell-based; conditions: for IC50: Primates, Epithelial cell
Excerpt: As noted above, one of the advantages of the invention is that the thiapyryliums described herein selectively attack the cancer cells as opposed to normal cells. Although knowledge of the mechanism is not essential to the practice of the invention, it is believed this occurs through the preferential inhibition of ATP synthesis in the mitochondria of the cancer cells. Such selectivity is further shown in clonogenic in vitro studies carried out in conventional fashion. That is, cell cultures of CX-1 (human colon carcinoma) and CV-1 (normal monkey kidney epithelial cells) are prepared and treated at various concentrations, in the conventional manner, and the concentration of the dye that inhibits 50% of the cell colonies formation is denoted as IC50. This IC50 value is compared for both the CX-1 and CV-1. That is, the CV-1 value is divided by the value for CX-1. If the value is 10 μg/ml for CV-1, and […] for CX-1, then the dye is 10 times as effective in killing off the colon carcinoma cells, compared to the monkey epithelial cells. This is expressed as a selectivity "S" of 10. That is, in order to inhibit 50% of the normal cells, the drug requires ten times the concentration needed for inhibiting 50% of the cancer cells.
("Retest" in this table refers to a repeat of the clonogenic test on either an entirely different preparation of the compound, or on a different recrystallization of the same preparation. The slight variance in selectivity can be accounted for, it is speculated, by a different moisture content in the preparation or crystallization of the compounds.)

[3] = test system: human melanoma cell line, LOX; assay: Melanoma test using nude mice protocol (LOX xenograft survival); type: in vivo, human melanoma cells in athymic Swiss nu/nu mice; conditions: male nude mice, 5 mg/kg IP daily for five days, then three times per week
Excerpt: (§1) FIGS. 1-6 are survival plots of cancer-bearing mice treated with the dyes of this invention, compared to a control group of such mice that were untreated. In these plots, "% survival" means the % of the total group (treated "T" or control "C") still surviving on the day in question. The 50% data point is selected for the T/C calculation, as being the point that is statistically meaningful.
(§2) Effectiveness against human cancer can be inferred by tests in the nude mouse-human xenograft model, hereinafter "nude mice protocol". […] 899-903, especially p. 889 (April 1985).
(§3) Nude mice, that is, those deficient in thymic functions, bred and maintained in pathogen-free conditions [See J. Natl. Cancer Inst. 51: 615-619 (1973)] were used in in vivo experiments. For each experiment, nude mice from the same litter and of the same sex which were over 3 months old and weighed at least 25 g were injected or implanted with cancer cells.
A human melanoma cell line, LOX, was used that grows rapidly when inoculated into the peritoneal cavity of athymic mice. […] Cells were then scored for viability with trypan blue and 5 million viable cells made up in 0.1 ml of Dulbecco modified Eagles' medium (DME) were injected intraperitoneally into a group of male athymic Swiss nu/nu mice. […]

[4] = test system: human ovarian carcinoma line OVCAR-3; assay: Ovarian carcinoma (OVCAR-3) using nude mice protocol (survival); type: in vivo, human ovarian carcinoma cells in nude mice; conditions: OVCAR-3, female nude mice, 5 mg/kg IP daily for five days, then twice weekly
Excerpt: as §1, §2, §3
Ex. 1 and 2 were repeated, except they were administered to female nude mice xenografted with human ovarian carcinoma line OVCAR-3. Ten mice were selected for treatment with the thiapyrylium, in an amount of 5 mg/kg administered IP 1 day after the cancer cells were injected. This was repeated as follows: daily for five days followed by twice weekly (usually on Tuesday and Thursday). Ten mice were used as the control group and were injected with 0.25 ml of 5% dextrose in water.

MB49 tumor cells = assay: Treatment of mouse bladder carcinoma (MB49) using thiapyrylium dyes administered IP (survival); type: in vivo; conditions: MB49, male BDF1 mice, 2 mg/kg IP daily for 5 days, then twice a week
Excerpt: as §1
MB49 tumor cells, that is, mouse carcinoma cells induced by the carcinogen 7,12-dimethyl benz[a]anthracene, were injected intraperitoneally into normal male BDF1 mice (2×10^6 /mouse). Each drug treated group and control group had ten mice. Except for the control group, one of the thiapyrylium dyes of Ex. 1 and Ex. 2 was administered intraperitoneally starting the following day in the following manner: 2 mg/kg daily for 5 days followed by 2 mg/kg twice a week. The control group of 10 mice was treated with 0.25 ml of 5% dextrose in water and was the same control group used for both Ex. 5-6. The survival rate was calculated as in the previous examples. The results were that the dye of Ex. 1 produced a T/C of 227%, and the dye of Ex. 2 produced a T/C of 263%, as shown further in FIGS. 5-6.

stomach cancer = stomach cancer in Japan, Antibiotics Chemother., Vol. 24, pages 149-159 (1978); cited from earlier work
[5] = retest: different preparation or recrystallization, CX-1
[6] = retest: different preparation or recrystallization, CV-1
[7] = clonogenic, CV-1 normal monkey kidney epithelial cells
[8] = clonogenic, CX-1 human colon carcinoma

With `CN(C)c1ccc(-c2cc(-c3ccccc3)[s+]c(-c3ccc(N(C)C)cc3)c2)cc1` [compound 6, reference compound] the “S (selectivity value)” value [1] was 10.0.

`CN(C)c1ccc(-c2cc(-c3ccccn3)[s+]c(-c3cccs3)c2)cc1` [T-4, 4-(4-dimethylaminophenyl)-2-(2-pyridyl)-6-(2-thienyl)thiapyrylium perchlorate] showed a Selectivity [1] of 333, an IC50 [1, 5] of 0.015 µg/mL and a Selectivity ([1]; retest) of 100. The IC50 [2, 6] was 1.5 µg/mL and the “CV-1 (normal cells IC50 value)” value [2, 7] was 5.0 µg/mL.

In the case of `ClCCN(CCCl)c1ccc(-c2cc(-c3ccccc3)[s+]c(-c3ccccc3)c2)cc1` [compound 9, reference compound], the “S (selectivity value)” value [1] is reported as < 5.0.

In the case of `CN(C)c1ccc(-c2cc(-c3ccccn3)[s+]c(-c3cccs3)c2)cc1` [T-1, 4-(4-dimethylaminophenyl)-2-(2-pyridyl)-6-(2-thienyl)thiapyrylium chloride], the Selectivity [1] is reported as 200, the IC50 [1, 8] is reported as 0.01 µg/mL and the “CV-1 (normal cells IC50 value)” value [2, 7] is reported as 2.0 µg/mL. For the same compound, the “T/C (test drug versus control, calculated based on 50% survival day)” value [3] was 200%, the T/C [4] was 321% and the T/C (MB49 tumor cells) was 263%.

With `CN(C)c1ccc(-c2cc(-c3cccs3)[s+]c(-c3cccs3)c2)cc1` [compound 3, 2,6-Bis(2-thienyl)-4-(4-dimethylaminophenyl)thiapyrylium perchlorate, reference compound] the “S (selectivity value)” value [1] was 1.0.

For `c1ccc(CN(Cc2ccccc2)c2ccc(-c3cc(-c4ccccc4)[s+]c(-c4ccccc4)c3)cc2)cc1` [compound 8, reference compound], the “S (selectivity value)” value [1] was < 7.5.

In the case of `CN(C)c1ccc(-c2cc(-c3ccccc3)[s+]c(-c3ccccc3)c2)cc1` [compound 2, reference compound], the “S (selectivity value)” value [1] is reported as 5.0.

With `CN(C)c1ccc(-c2cc(-c3ccccc3)[s+]c(-c3ccccn3)c2)cc1` [T-3, 4-(4-dimethylaminophenyl)-2-phenyl-6-(2-pyridyl)thiapyrylium perchlorate] the Selectivity [1] was 167, the “CX-1 (colon carcinoma cells IC50 value)” value [1, 8] was 0.015 µg/mL and the “CX-1 (colon carcinoma cells IC50 value)” value [1, 5] was 0.025 µg/mL. For the same compound, the Selectivity ([1]; retest) was 100, the “CV-1 (normal cells IC50 value)” value [2, 7] was 2.5 µg/mL and the “CV-1 (normal cells IC50 value)” value [2, 6] was 2.5 µg/mL.

In the case of `CN(C)c1ccc(-c2cc(-c3ccncc3)[s+]c(-c3cccs3)c2)cc1` [compound 4, 4-(4-Dimethylaminophenyl)-2-(4-pyridyl)-6-(2-thienyl)thiapyrylium perchlorate, reference compound], the “S (selectivity value)” value [1] is reported as 3.3.

With `CN(C)c1ccc(-c2cc(-c3ccco3)[s+]c(-c3cccs3)c2)cc1` [compound 5, 4-(4-Dimethylaminophenyl)-2-(2-furyl)-6-(2-thienyl)thiapyrylium perchlorate, reference compound] the “S (selectivity value)” value [1] was 13.5.

For `Cc1cc(N(CCCl)CCCl)ccc1-c1cc(-c2ccccc2)[s+]c(-c2ccccc2)c1` [compound 7, reference compound], the “S (selectivity value)” value [1] was < 7.5.

In the case of `COc1cccc2c1C(=O)c1c(O)c3c(c(O)c1C2=O)C[C@@](O)(C(=O)CO)C[C@@H]3O[C@H]1C[C@H](N)[C@H](O)[C@H](C)O1` [Adriamycin], the effective response rate (stomach cancer) is listed as 14.5%.

For `CN(C)c1ccc(-c2cc(-c3ccccc3)[s+]c(-c3ccccn3)c2)cc1` [T-2, 4-(4-dimethylaminophenyl)-2-phenyl-6-(2-pyridyl)thiapyrylium chloride], the Selectivity [1] was 167, the IC50 [1, 8] was 0.018 µg/mL and the “CX-1 (colon carcinoma cells IC50 value)” value [1, 5] was 0.005 µg/mL. For the same compound, the Selectivity ([1]; retest) was 60, the IC50 [2, 7] was 3 µg/mL and the “T/C (test drug versus control, calculated based on 50% survival day)” value [3] was 228%. It also gave a T/C [4] of 340% and a T/C (MB49 tumor cells) of 227%.

Reference: US4774250A, “Composition and method for treating differentiated carcinoma or melanoma cells with thiapyrylium dyes” (Dana Farber Cancer Institute, priority 1987, dated 1988)
